Test results reported in PubChem BioAssay AID256 (DTP/NCI, 2004).
Values joined by “and” are separate entries in the source; they are usually repeats but may differ in a detail not shown here. Equal entries are not always repeated. Toxic doses and inconclusive results are not listed. Rule for the calls: active = survival T/C of 150% or more; inactive = T/C below 125% in these data.

Tested on: CD2F1 mice, L1210 leukemia ip, survival T/C
Assay: NCI In Vivo Anticancer Drug Screen. Data for tumor model L1210 Leukemia (intraperitoneal) in CD2F1 (CDF1) mice
Conditions: higher = longer survival
Summary of the method: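 In this screen, transplantable tumors were grown in mice given either the compound or its vehicle. Results were expressed as the treated measurement relative to the control measurement.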

[1] = endpoint: mean survival time, dose: 25.0 mg/kg/injection, schedule: Q01DX009 (ip), vehicle: saline
[2] = endpoint: mean survival time, dose: 50.0 mg/kg/injection, schedule: Q01DX009 (ip), vehicle: saline
[3] = endpoint: mean survival time, dose: 100.0 mg/kg/injection, schedule: Q01DX001 (ip), vehicle: saline with Tween-80
[4] = endpoint: mean survival time, dose: 100.0 mg/kg/injection, schedule: Q01DX009 (ip), vehicle: saline
[5] = endpoint: mean survival time, dose: 100.0 mg/kg/injection, schedule: Q04DX003 (ip), vehicle: saline with Tween-80
[6] = endpoint: mean survival time, dose: 200.0 mg/kg/injection, schedule: Q04DX003 (ip), vehicle: saline with Tween-80
[7] = endpoint: mean survival time, dose: 400.0 mg/kg/injection, schedule: Q04DX003 (ip), vehicle: saline with Tween-80
[8] = endpoint: mean survival time, dose: 200.0 mg/kg/injection, schedule: Q01DX001 (ip), vehicle: saline with Tween-80
[9] = endpoint: mean survival time, dose: 100.0 mg/kg/injection, schedule: Q01DX009 (ip), vehicle: saline with Tween-80
[10] = endpoint: mean survival time, dose: 200.0 mg/kg/injection, schedule: Q01DX009 (ip), vehicle: saline with Tween-80
[11] = endpoint: mean survival time, dose: 400.0 mg/kg/injection, schedule: Q01DX009 (ip), vehicle: saline with Tween-80
[12] = endpoint: mean survival time, dose: 50.0 mg/kg/injection, schedule: Q01DX009 (ip), vehicle: saline with Tween-80

Measured: T/C

CCOC(=O)CCCCCSc1n[nH]c(=O)[nH]c1=O
inactive: endpoint: mean survival time, dose: 12.5 mg/kg/injection, schedule: Q01DX005 (ip), vehicle: distilled water + Tween-80 102 % of control | endpoint: mean survival time, dose: 25.0 mg/kg/injection, schedule: Q01DX005 (ip), vehicle: distilled water + Tween-80 103 % of control | endpoint: mean survival time, dose: 50.0 mg/kg/injection, schedule: Q01DX005 (ip), vehicle: distilled water + Tween-80 92 % of control | endpoint: mean survival time, dose: 100.0 mg/kg/injection, schedule: Q01DX005 (ip), vehicle: distilled water + Tween-80 102 % of control | endpoint: mean survival time, dose: 200.0 mg/kg/injection, schedule: Q01DX005 (ip), vehicle: distilled water + Tween-80 102 % of control

CC[N+]1(C2CCC3CCC2C3O)CCOCC1 (stereo not given)
inactive: [1] 91 % of control | endpoint: mean survival time, dose: 25.0 mg/kg/injection, schedule: Q04DX003 (ip), vehicle: saline 95 % of control | [2] 94 % of control | endpoint: mean survival time, dose: 50.0 mg/kg/injection, schedule: Q04DX003 (ip), vehicle: saline 97 % of control | [3] 100 % of control | [4] 92 % of control | endpoint: mean survival time, dose: 100.0 mg/kg/injection, schedule: Q04DX003 (ip), vehicle: saline 100 % of control

OC1C2COC(O2)C(O)C1O (stereo not given) (tested in a mixture with another compound)
inactive: [4] 93 % of control | endpoint: mean survival time, dose: 200.0 mg/kg/injection, schedule: Q01DX009 (ip), vehicle: saline 91 % of control | endpoint: mean survival time, dose: 400.0 mg/kg/injection, schedule: Q01DX009 (ip), vehicle: saline 91 % of control

FC(F)=C(F)I
inactive: endpoint: mean survival time, dose: 50.0 mg/kg/injection, schedule: Q01DX009 (ip), vehicle: other 95 % of control | endpoint: mean survival time, dose: 100.0 mg/kg/injection, schedule: Q01DX009 (ip), vehicle: other 103 % of control | endpoint: mean survival time, dose: 200.0 mg/kg/injection, schedule: Q01DX009 (ip), vehicle: other 103 % of control

O=[N+]([O-])c1ccc(SC2CCC(Cl)C3CCCCC23)c([N+](=O)[O-])c1 (stereo not given)
inactive: endpoint: mean survival time, dose: 25.0 mg/kg/injection, schedule: Q04DX002 (ip), vehicle: saline with Tween-80 93 % of control | endpoint: mean survival time, dose: 50.0 mg/kg/injection, schedule: Q04DX002 (ip), vehicle: saline with Tween-80 90 % of control | endpoint: mean survival time, dose: 100.0 mg/kg/injection, schedule: Q04DX002 (ip), vehicle: saline with Tween-80 86 % of control and 93 % of control | endpoint: mean survival time, dose: 400.0 mg/kg/injection, schedule: Q04DX002 (ip), vehicle: saline with Tween-80 86 % of control

O=C1C(n2ccc(=O)n(C(=O)c3ccccc3)c2=O)CCN1CCO (stereo not given)
inactive: endpoint: mean survival time, dose: 100.0 mg/kg/injection, schedule: Q01DX001 (ip), vehicle: saline 102 % of control | endpoint: mean survival time, dose: 200.0 mg/kg/injection, schedule: Q01DX001 (ip), vehicle: saline 100 % of control | endpoint: mean survival time, dose: 400.0 mg/kg/injection, schedule: Q01DX001 (ip), vehicle: saline 102 % of control

COc1ccc(NC(=O)Nc2cccc(O)c2)c(Cl)c1
inactive: endpoint: mean survival time, dose: 50.0 mg/kg/injection, schedule: Q01DX009 (ip), vehicle: Klucel (hydroxypropylcellulose) (HPC) 95 % of control | endpoint: mean survival time, dose: 100.0 mg/kg/injection, schedule: Q01DX009 (ip), vehicle: Klucel (hydroxypropylcellulose) (HPC) 98 % of control | endpoint: mean survival time, dose: 100.0 mg/kg/injection, schedule: Q04DX003 (ip), vehicle: Klucel (hydroxypropylcellulose) (HPC) 102 % of control | endpoint: mean survival time, dose: 200.0 mg/kg/injection, schedule: Q01DX009 (ip), vehicle: Klucel (hydroxypropylcellulose) (HPC) 95 % of control | endpoint: mean survival time, dose: 200.0 mg/kg/injection, schedule: Q04DX003 (ip), vehicle: Klucel (hydroxypropylcellulose) (HPC) 112 % of control | endpoint: mean survival time, dose: 400.0 mg/kg/injection, schedule: Q04DX003 (ip), vehicle: Klucel (hydroxypropylcellulose) (HPC) 104 % of control

CN1CCC(C(O)c2ccccc2)CC1 (stereo not given)
inactive: [5] 102 % of control | [6] 100 % of control | [7] 88 % of control

CCSc1nc(N)c2ncn(C3OC(CO)C(O)C3O)c2n1 (stereo not given)
inactive: endpoint: median survival time, dose: 10.0 mg/kg/injection, schedule: Q01DX005 (ip), vehicle: saline with Tween-80 103 % of control | endpoint: median survival time, dose: 20.0 mg/kg/injection, schedule: Q01DX005 (ip), vehicle: saline with Tween-80 100 % of control | endpoint: median survival time, dose: 40.0 mg/kg/injection, schedule: Q01DX005 (ip), vehicle: saline with Tween-80 91 % of control | endpoint: median survival time, dose: 80.0 mg/kg/injection, schedule: Q01DX005 (ip), vehicle: saline with Tween-80 88 % of control | endpoint: median survival time, dose: 160.0 mg/kg/injection, schedule: Q01DX005 (ip), vehicle: saline with Tween-80 93 % of control

COc1ccc(C(=O)OCC(=O)O)cc1
inactive: endpoint: mean survival time, dose: 50.0 mg/kg/injection, schedule: Q01DX001 (ip), vehicle: saline with Tween-80 102 % of control | [3] 98 % of control | [8] 102 % of control

NC(=O)NC(=S)NC(=O)c1ccccc1
inactive: [9] 111 % of control | [5] 102 % of control | [10] 98 % of control | [6] 98 % of control | [11] 98 % of control | [7] 101 % of control

O=[N+]([O-])c1cc2nsnc2cc1[N+](=O)[O-]
inactive: [5] 101 % of control | [6] 95 % of control | [7] 96 % of control

CCCCNC(=O)Nc1ccccc1Cl
inactive: [9] 91 % of control | [5] 101 % of control | [10] 94 % of control | [6] 100 % of control | [11] 100 % of control | [7] 92 % of control

C[N+]12CC3C(O)CC1CCC32 (stereo not given)
inactive: endpoint: mean survival time, dose: 12.0 mg/kg/injection, schedule: Q01DX001 (ip), vehicle: saline 97 % of control | endpoint: mean survival time, dose: 12.0 mg/kg/injection, schedule: Q01DX009 (ip), vehicle: saline 96 % of control | endpoint: mean survival time, dose: 25.0 mg/kg/injection, schedule: Q01DX001 (ip), vehicle: saline 96 % of control | [1] 98 % of control | endpoint: mean survival time, dose: 50.0 mg/kg/injection, schedule: Q01DX001 (ip), vehicle: saline 97 % of control | [2] 93 % of control

CCOC(=O)C1=C(NC(=O)Nc2cccc(C(F)(F)F)c2)SC2CCCCC12 (stereo not given)
inactive: [12] 94 % of control | [9] 91 % of control | [10] 87 % of control

N#CSc1nc2ccccc2s1
inactive: endpoint: mean survival time, dose: 25.0 mg/kg/injection, schedule: Q01DX009 (ip), vehicle: saline with Tween-80 96 % of control | [12] 94 % of control | [9] 97 % of control

COC(=O)Nc1cn2cc(C(=O)c3cccs3)ccc2n1
inactive: endpoint: median survival time, dose: 6.25 mg/kg/injection, schedule: Q01DX009 (ip), vehicle: Klucel (hydroxypropylcellulose) (HPC) 104 % of control | endpoint: median survival time, dose: 12.5 mg/kg/injection, schedule: Q01DX009 (ip), vehicle: Klucel (hydroxypropylcellulose) (HPC) 112 % of control | endpoint: median survival time, dose: 25.0 mg/kg/injection, schedule: Q01DX009 (ip), vehicle: Klucel (hydroxypropylcellulose) (HPC) 119 % of control | endpoint: median survival time, dose: 50.0 mg/kg/injection, schedule: Q01DX009 (ip), vehicle: Klucel (hydroxypropylcellulose) (HPC) 124 % of control

C/C(=N/O)c1ccc(O)cc1
inactive: [5] 90 % of control | [6] 100 % of control | [7] 94 % of control

Cc1csc2[nH]c(=O)[nH]c(=O)c12
inactive: [5] 96 % of control | [6] 94 % of control | [7] 87 % of control

Nc1ccccc1C(=O)O
inactive: [3] 97 % of control | [8] 100 % of control | endpoint: mean survival time, dose: 400.0 mg/kg/injection, schedule: Q01DX001 (ip), vehicle: saline with Tween-80 100 % of control

O=C1C2(Cl)C(Cl)=C(Cl)C1(Cl)C1(Cl)C(Cl)=C(Cl)C(=O)C21Cl (stereo not given)
inactive: endpoint: mean survival time, dose: 10.0 mg/kg/injection, schedule: Q01DX009 (ip), vehicle: saline with Tween-80 94 % of control | endpoint: mean survival time, dose: 20.0 mg/kg/injection, schedule: Q01DX009 (ip), vehicle: saline with Tween-80 94 % of control | endpoint: mean survival time, dose: 40.0 mg/kg/injection, schedule: Q01DX009 (ip), vehicle: saline with Tween-80 92 % of control
